Measured values from US9670204B2, “Compounds and pharmaceutical compositions thereof for the treatment of inflammatory disorders” (Galapagos NV, priority 2013, dated 2017).

Legend:
[1] = system: LPA 18:2 in human plasma; test: Human whole blood (plasma) LPA assay; assay type: biochemical; settings: 2 h at 37 C, LPA 18:2 by LC-MS/MS
Procedure: Blood is collected from healthy volunteers who gave informed consent into sodium heparin tubes by venipuncture, then gently inverted several times to prevent clotting. Tubes are centrifuged at 3000 rpm for 15 min at 4° C. then plasma is stored at −80° C. Compounds are diluted in DMSO in concentration dependent manner then 0.5 μL are dispensed into 96-well plate placed in ice. Plasma is defrosted on ice then 49.5 μL of plasma are added into the well containing 0.5 μL of compound (1% DMSO final). Plates are covered with a lid in polypropylene and incubated at +37° C., 5% CO2, for 2 h under gentle shaking (except controls which are stored at −20° C.).
At the end of the incubation, controls are defrosted in ice and transferred in the incubated plates for LC-MS/MS analysis with a non GLP-validated method. For the analysis, plasma proteins from a 10 μL incubated plates are precipitated with an excess of methanol containing the internal standard, LPA 17:0. After centrifugation, the corresponding supernatant is injected on a C18 column. Analytes are eluted out of the column under isocratic conditions. An API5500 QTRAP mass spectrometer (ABSciex™) is used for the detection of LPA 18:2. No calibration curve is prepared for LPA 18:2, however relative quantities are evaluated based on the peak area.

[2] = system: TS-induced pulmonary inflammation, cells in BALF; test: Tobacco smoke (TS) model, lungs inflammatory cells recruitment; assay type: in vivo, female C57BL/6J mice; settings: days 6 to 11, TS-exposed mice
Procedure: The aim of this experiment is to evaluate the efficacy and potency of a test compound administered p.o., once or twice daily on days 6 to 11, vs reference compounds, on pulmonary inflammation induced by 11 days of TS-exposure in female C57BL/6J mice, by assessing the effect of a test compound on the tobacco smoke induced recruitment of inflammatory cells to the lungs.
The test compounds are formulated in PEG200/0.5% methylcellulose (25/75, v/v) and are given at a dose volume of 10 mL/kg. Roflumilast and Dexamethasone are included as positive […] control, respectively. Each treatment group consists of 10 mice.
A first group of mice is subjected to daily TS-exposure for 5 consecutive days and sacrificed on the day 6, 24 h after the final TS-exposure.
A second group is exposed to air for 5 consecutive days (sham exposure) and sacrificed on the day 6, 24 h after the final air-exposure.
Compound and reference-treated groups are subjected to daily TS-exposure for 11 consecutive days and sacrificed on the day 12, 24 h after the final TS-exposure. Mice are dosed p.o. on days 6 to 11, twice daily, 1 h prior to and 6 h after each TS-exposure, with either vehicle, or the test compound at 3, 5, 10 or 30 mg/kg. Another group is dosed p.o. on days 6 to 11, once daily, 1 h prior to each TS-exposure, with either vehicle, or the test compound at 10 mg/kg.
An additional group is dosed p.o., once daily, on days 6 to 11, with roflumilast at 5 mg/kg, 1 h prior to each TS-exposure. Dexamethasone is dosed p.o., twice daily, on days 6 to 11, at 0.3 mg/kg, 1 h prior to and 6 h after each TS-exposure.
For each mouse, a BAL is performed using 0.4 mL of PBS. The lavage fluid is centrifuged, the supernatant removed and the resulting cell pellet re-suspended for total cell counts and cytospin slide preparation. […]
The lungs are dissected out and the left lobes are removed, snap-frozen and stored at −80° C. […] Cell data are presented as individual data points for each animal and the mean value calculated for each group. […]
Percentage inhibitions for the cell data are calculated using the formula below: […]

[3] = system: LPA 18:2 in rat plasma; test: Rat whole blood (plasma) LPA assay; assay type: biochemical; settings: 2 h at 37 C, LPA 18:2 by LC-MS/MS
Procedure, shortened: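 Heparinised rat plasma spiked with compound (1% DMSO final), incubated 2 h at 37 °C, 5% CO2 with shaking; controls kept at −20 °C. After methanol precipitation with LPA 17:0 internal standard, LPA 18:2 measured by LC-MS/MS (C18, isocratic), relative quantities from peak area without calibration.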

[4] = target: T1, hENPP2 (UniProtKB/SwissProt Q13822) (Homo sapiens (Human), UniProt Q13822); test: hENPP2 biochemical assay, LPC as substrate; settings: LPC (palmitoyl 16:0) as substrate
Procedure, shortened: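 Human ENPP2 in 50 mM Tris-HCl pH 8.5, 500 mM NaCl, 5 mM KCl, 10 mM CaCl2, 0.1% fatty-acid-free BSA, reacted 30 min at 37 °C with LPC 16:0 (150 µM solution added 1:1). Released choline measured via choline oxidase/peroxidase/TOOS/4-aminoantipyrine quinoneimine dye at 555 nm; IC50 reported.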

[5] = target: T1, hENPP2; test: fluorescent hENPP2 biochemical assay, FS-3 as substrate; settings: read-out: FS3-IC50
Procedure, shortened: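 IC50 values come from fluorescence gained as FS-3 is hydrolysed (ex 485, em 520 nm). The reaction, started by adding 0.75 μM FS-3 solution, runs 30 min at 30° C after a 30 min room-temperature preincubation of compound with enzyme. Buffer: Tris-HCl pH 8.0 with NaCl, KCl, MgCl2, CaCl2 and 0.1% BSA.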

Question: What does the source list for `CCc1nc2c(C)cc(N3CCN(CC(=O)N4CC(O)C4)CC3)cn2c1N(C)c1nc(-c2ccc(F)cc2)c(C#N)s1` [Compound 2, 2-((2-ethyl-6-(4-(2-(3-hydroxyazetidin-1-yl)-2-oxoethyl)piperazin-1-yl)-8-methylimidazo[1,2-a]pyridin-3-yl)(methyl)amino)-4-(4-fluorophenyl) thiazole-5-carbonitrile]?
Answer: IC50 [1]: 100 to 500 nM; number of cells recovered in the BALF, in particular macrophage cells, epithelial cells, and neutrophils ([2]; 3 mg/kg twice daily p.o.): significantly inhibited; number of cells recovered in the BALF, in particular macrophage cells, epithelial cells, and neutrophils ([2]; 10 mg/kg twice daily p.o.): significantly inhibited; IC50 [3]: 500 to 1000 nM

Question: How did the IC50 [4] turn out when `CCc1nc2c(F)cc(N3CCN(CC(=O)N4CC(O)C4)CC3)cn2c1N(C)c1nc(-c2ccc(F)cc2)c(C#N)s1` [Compound 12, 2-((2-ethyl-8-fluoro-6-(4-(2-(3-hydroxyazetidin-1-yl)-2-oxoethyl)piperazin-1-yl)imidazo[1,2-a]pyridin-3-yl)(methyl)amino)-4-(4-fluorophenyl)thiazole-5-carbonitrile] was run?
Answer: 0.01 to 100 nM

Question: What about the IC50 [1] of the same compound?
Answer: 100 to 500 nM

Question: What about the “number of cells recovered in the BALF, in particular macrophage cells, epithelial cells, and neutrophils” value ([2]; 10 mg/kg twice daily p.o.) of the same compound?
Answer: significantly inhibited

Question: And the IC50 [5]?
Answer: 0.01 to 100 nM

Question: And the IC50 [3]?
Answer: 0.01 to 100 nM
